Calls of active or inactive are those of the source. No cut-off for these calls is given here.
What was measured:
Coagulation factor X [1] = target: T1, Coagulation factor X (Homo sapiens, UniProt P00742); test: Inhibition of human F10a using S-2765 as substrate at 0.1 uM after 45 mins
Plasma [2] = system: Plasma
Coagulation factor X [3] = target: T1, Coagulation factor X; test: Inhibition of human F10a using S-2765 as substrate after 45 mins
Plasma [4] = test: Anticoagulant activity in rat plasma assessed as concentration required to double prothrombin time; type: functional
Coagulation factor X [5] = target: T1, Coagulation factor X; test: Inhibition of F10a assessed as S-2765 substrate hydrolysis by microplate reader analysis
Prothrombin = Prothrombin (Homo sapiens, UniProt P00734); test: Inhibition of thrombin assessed as S-2238 substrate hydrolysis by microplate reader analysis
Plasminogen = Plasminogen (Homo sapiens, UniProt P00747); test: Inhibition of plasmin assessed as S-2302 substrate hydrolysis by microplate reader analysis
Chain of Plasminogen (P00747 97-580 limits assumed): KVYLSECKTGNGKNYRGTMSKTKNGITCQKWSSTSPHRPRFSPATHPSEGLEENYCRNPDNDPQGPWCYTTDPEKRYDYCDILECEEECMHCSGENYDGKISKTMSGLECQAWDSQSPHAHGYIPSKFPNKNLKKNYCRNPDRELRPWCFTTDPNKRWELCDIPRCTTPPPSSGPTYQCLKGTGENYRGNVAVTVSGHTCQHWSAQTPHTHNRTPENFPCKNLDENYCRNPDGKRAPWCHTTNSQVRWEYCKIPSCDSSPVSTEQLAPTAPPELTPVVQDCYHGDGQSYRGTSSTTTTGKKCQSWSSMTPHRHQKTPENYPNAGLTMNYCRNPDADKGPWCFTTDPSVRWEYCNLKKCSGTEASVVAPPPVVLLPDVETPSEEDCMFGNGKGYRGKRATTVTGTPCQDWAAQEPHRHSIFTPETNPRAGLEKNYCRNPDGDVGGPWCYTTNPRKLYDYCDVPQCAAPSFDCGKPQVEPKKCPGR
Chain of Plasminogen (P00747 581-810 limits assumed): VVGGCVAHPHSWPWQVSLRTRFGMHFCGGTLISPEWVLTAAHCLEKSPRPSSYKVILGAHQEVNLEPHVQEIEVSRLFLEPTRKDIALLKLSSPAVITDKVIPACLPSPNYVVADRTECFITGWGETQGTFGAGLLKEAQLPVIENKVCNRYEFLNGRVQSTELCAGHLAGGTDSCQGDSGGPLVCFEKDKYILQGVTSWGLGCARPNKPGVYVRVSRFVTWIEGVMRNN

[6] = target: Tissue-type plasminogen activator (Homo sapiens, UniProt P00750); test: Inhibition of tPA assessed as S-2288 substrate hydrolysis by microplate reader analysis
Chain of Tissue-type plasminogen activator (P00750 whole entry): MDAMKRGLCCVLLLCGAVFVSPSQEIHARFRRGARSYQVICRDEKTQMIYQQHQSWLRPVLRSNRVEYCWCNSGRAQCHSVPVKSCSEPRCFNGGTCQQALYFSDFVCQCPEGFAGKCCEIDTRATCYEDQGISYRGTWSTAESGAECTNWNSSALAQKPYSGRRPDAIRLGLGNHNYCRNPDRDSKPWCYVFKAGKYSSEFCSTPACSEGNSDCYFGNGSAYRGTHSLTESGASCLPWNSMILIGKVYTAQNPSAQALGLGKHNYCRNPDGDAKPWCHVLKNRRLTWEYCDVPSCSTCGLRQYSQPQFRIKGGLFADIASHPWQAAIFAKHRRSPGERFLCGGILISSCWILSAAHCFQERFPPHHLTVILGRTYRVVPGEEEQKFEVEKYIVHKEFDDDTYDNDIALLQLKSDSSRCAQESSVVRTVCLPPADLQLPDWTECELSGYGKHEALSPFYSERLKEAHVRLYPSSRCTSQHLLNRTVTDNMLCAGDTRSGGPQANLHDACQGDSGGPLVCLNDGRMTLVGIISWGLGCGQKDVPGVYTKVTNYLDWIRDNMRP

[7] = Inhibition of trypsin assessed as S-2222 substrate hydrolysis by microplate reader analysis
[8] = target: Vitamin K-dependent protein C (Homo sapiens, UniProt P04070); test: Inhibition of activated protein C assessed as S-2366 substrate hydrolysis by microplate reader analysis
Chain of Vitamin K-dependent protein C (P04070 43-197 limits assumed): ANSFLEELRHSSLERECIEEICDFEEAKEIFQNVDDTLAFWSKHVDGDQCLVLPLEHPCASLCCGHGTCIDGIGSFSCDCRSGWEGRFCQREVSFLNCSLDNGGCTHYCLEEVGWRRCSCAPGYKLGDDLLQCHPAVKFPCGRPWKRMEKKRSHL
Chain of Vitamin K-dependent protein C (P04070 212-461 limits assumed): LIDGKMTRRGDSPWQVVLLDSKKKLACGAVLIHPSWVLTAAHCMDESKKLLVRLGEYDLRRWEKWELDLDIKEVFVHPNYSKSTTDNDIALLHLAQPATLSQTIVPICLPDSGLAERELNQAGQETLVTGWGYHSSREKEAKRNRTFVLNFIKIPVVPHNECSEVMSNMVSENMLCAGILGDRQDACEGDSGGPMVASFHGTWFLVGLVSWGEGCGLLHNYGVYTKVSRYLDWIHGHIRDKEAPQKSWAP

CYP3A4 = CYP3A4 (Homo sapiens, UniProt P08684); test: Inhibition of human CYP3A4 at 10 uM; type: ADME
Chain of CYP3A4 (P08684 whole entry): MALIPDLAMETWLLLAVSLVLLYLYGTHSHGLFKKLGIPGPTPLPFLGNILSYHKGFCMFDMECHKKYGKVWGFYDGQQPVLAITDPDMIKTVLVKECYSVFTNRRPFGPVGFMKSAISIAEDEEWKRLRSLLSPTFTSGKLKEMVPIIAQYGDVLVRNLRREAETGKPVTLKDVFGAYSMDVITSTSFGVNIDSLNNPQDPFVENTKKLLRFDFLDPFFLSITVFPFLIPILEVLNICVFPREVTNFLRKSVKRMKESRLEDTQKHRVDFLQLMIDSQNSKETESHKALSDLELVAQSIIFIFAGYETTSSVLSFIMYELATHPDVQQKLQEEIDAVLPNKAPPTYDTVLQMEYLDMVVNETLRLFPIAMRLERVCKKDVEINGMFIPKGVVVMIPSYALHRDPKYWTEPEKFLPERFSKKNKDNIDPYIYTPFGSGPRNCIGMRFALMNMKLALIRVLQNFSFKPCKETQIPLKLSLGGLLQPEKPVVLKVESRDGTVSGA

Rattus norvegicus [9] = test: Antithrombotic activity in FeCl3-induced arterial thrombosis Wistar rat model assessed as reduction in thrombus weight at 10 mg/kg, po after 2 hrs; type: functional; parameters: scale not given: the % may be the effect or the level left
Rattus norvegicus [10] = test: Antithrombotic activity in FeCl3-induced arterial thrombosis Wistar rat model assessed as reduction in thrombus weight at 30 mg/kg, po after 2 hrs; type: functional; parameters: scale not given: the % may be the effect or the level left
Plasma [11] = test: Plasma concentration in fasted Wistar rat at 30 mg/kg, po; type: ADME, organism-based; parameters: dose 30 mg/kg, route oral; details: in vivo
Rattus norvegicus [12] = test: Cmax in fasted Wistar rat assessed as 5-Chloro-N-(5-chloropyridin-2-yl)-2-(4-(N-(2-(ethyl-amino)acetyl)-S-methylsulfon imidoyl) benzamido) benzamide at 30 mg/kg, po; type: ADME, organism-based; parameters: dose 30 mg/kg, route oral; details: in vivo
Rattus norvegicus [13] = test: Tmax in fasted Wistar rat assessed as 5-Chloro-N-(5-chloropyridin-2-yl)-2-(4-(N-(2-(ethyl-amino)acetyl)-S-methylsulfon imidoyl) benzamido) benzamide at 30 mg/kg, po; type: ADME, organism-based; parameters: dose 30 mg/kg, route oral; details: in vivo
Rattus norvegicus [14] = test: Half life in fasted Wistar rat assessed as 5-Chloro-N-(5-chloropyridin-2-yl)-2-(4-(N-(2-(ethyl-amino)acetyl)-S-methylsulfon imidoyl) benzamido) benzamide at 30 mg/kg, po; type: ADME, organism-based; parameters: dose 30 mg/kg, route oral; details: in vivo
Rattus norvegicus [15] = test: AUC (0 to 24 hrs) in fasted Wistar rat assessed as 5-Chloro-N-(5-chloropyridin-2-yl)-2-(4-(N-(2-(ethyl-amino)acetyl)-S-methylsulfon imidoyl) benzamido) benzamide at 30 mg/kg, po; type: ADME, organism-based, Plasma; parameters: time < 24 hr, dose 30 mg/kg, route oral; details: in vivo
Rattus norvegicus [16] = test: Antithrombotic activity in FeCl3-induced venous thrombosis Wistar rat model assessed as reduction in thrombus weight at 10 mg/kg, po after 2 hrs; type: functional; parameters: scale not given: the % may be the effect or the level left
Rattus norvegicus [17] = test: Antithrombotic activity in FeCl3-induced venous thrombosis Wistar rat model assessed as reduction in thrombus weight at 30 mg/kg, po after 2 hrs; type: functional; parameters: scale not given: the % may be the effect or the level left
Rattus norvegicus [18] = test: Antithrombotic activity in po dosed FeCl3-induced arterial thrombosis Wistar rat model assessed as reduction in thrombus weight after 2 hrs; type: functional, organism-based
Rattus norvegicus [19] = test: Antithrombotic activity in po dosed FeCl3-induced venous thrombosis Wistar rat model assessed as reduction in thrombus weight after 2 hrs; type: functional, organism-based

T1 sequence (P00742 41-179 limits assumed): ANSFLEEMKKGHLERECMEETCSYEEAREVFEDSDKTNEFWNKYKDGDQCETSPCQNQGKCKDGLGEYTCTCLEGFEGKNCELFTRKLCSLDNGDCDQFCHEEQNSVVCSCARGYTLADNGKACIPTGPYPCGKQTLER
T1 sequence (P00742 235-488 limits assumed): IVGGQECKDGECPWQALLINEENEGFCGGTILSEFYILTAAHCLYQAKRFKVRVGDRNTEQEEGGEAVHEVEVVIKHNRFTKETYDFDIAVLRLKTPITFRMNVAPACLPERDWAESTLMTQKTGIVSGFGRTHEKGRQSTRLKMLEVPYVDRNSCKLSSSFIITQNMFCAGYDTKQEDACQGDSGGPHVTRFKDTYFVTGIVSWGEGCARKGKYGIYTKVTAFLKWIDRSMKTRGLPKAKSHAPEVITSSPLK

SMILES	inhibition (Coagulation factor X [1])	2PT (Plasma [2])	2PT (Plasma [4])	further results
CS(=O)(=NC(=O)CN1CCC(O)CC1)c1ccc(C(=O)Nc2ccc(Cl)cc2C(=O)Nc2ccc(Cl)cn2)cc1 (configuration not stated)	69%	2.16 µM	–	–
CS(=O)(=NC(=O)CN1CCCC1)c1ccc(C(=O)Nc2ccc(Cl)cc2C(=O)Nc2ccc(Cl)cn2)cc1 (configuration not stated)	95%	0.46 µM	1.57 µM	IC50 (Coagulation factor X [3]): 3.2 nM
COCC(=O)N=S(C)(=O)c1ccc(C(=O)Nc2ccc(Cl)cc2C(=O)Nc2ccc(Cl)cn2)cc1 (configuration not stated)	48%	3 µM	–	–
CCN(CC)CC(=O)N=S(C)(=O)c1ccc(C(=O)Nc2ccc(OC)cc2C(=O)Nc2ccc(Cl)cn2)cc1 (configuration not stated)	56%	1.44 µM	–	–
CCS(=N)(=O)c1ccc(C(=O)Nc2ccc(Cl)cc2C(=O)Nc2ccc(Cl)cn2)cc1 (configuration not stated)	inactive	–	–	–
CN1CCCN(CC(=O)N=S(C)(=O)c2ccc(C(=O)Nc3ccc(Cl)cc3C(=O)Nc3ccc(Cl)cn3)cc2)CC1 (configuration not stated)	75%	1.82 µM	–	–
CCNCC(=O)N=S(C)(=O)c1ccc(C(=O)Nc2ccc(Cl)cc2C(=O)Nc2ccc(Cl)cn2)cc1 (configuration not stated)	100%	0.81 µM	2.1 µM	IC50 (Coagulation factor X [3]): 2.7 nM; Ki (Coagulation factor X [5]): 1.5 nM; Ki (Prothrombin): > 20000 nM; Ki (Plasminogen): > 20000 nM; Ki [6]: > 20000 nM; Ki [7]: > 20000 nM; Ki [8]: > 20000 nM; inhibition at 10 µM (CYP3A4): 27%
CN1CCN(CC(=O)N=S(C)(=O)c2ccc(C(=O)Nc3ccc(Cl)cc3C(=O)Nc3ccc(Cl)cn3)cc2)CC1 (configuration not stated)	88%	2.03 µM	–	–
CCN(CC)CC(=O)N=S(C)(=O)c1ccc(C(=O)Nc2ccc(Cl)cc2C(=O)Nc2ccc(Cl)cn2)cc1.Cl (configuration not stated)	–	–	–	Activity (Rattus norvegicus [9]): 32%; Activity (Rattus norvegicus [10]): 71%; Cp (Plasma [11]): < 100 ng/mL; Cmax (Rattus norvegicus [12]): 3280 ng/mL; Tmax (Rattus norvegicus [13]): 2.75 h; t1/2 (Rattus norvegicus [14]): 4.79 h; AUC (Rattus norvegicus [15]): 43510 ng·h/mL; Activity (Rattus norvegicus [16]): 45%; Activity (Rattus norvegicus [17]): 81%
CC(C)N(CC(=O)N=S(C)(=O)c1ccc(C(=O)Nc2ccc(Cl)cc2C(=O)Nc2ccc(Cl)cn2)cc1)C(C)C (configuration not stated)	79%	1.45 µM	–	–
CNCC(=O)N=S(C)(=O)c1ccc(C(=O)Nc2c(OC)cc(Cl)cc2C(=O)Nc2ccc(Cl)cn2)cc1 (configuration not stated)	92%	0.58 µM	0.9 µM	IC50 (Coagulation factor X [3]): 5.6 nM
N=S(=O)(CCO)c1ccc(C(=O)Nc2ccc(Cl)cc2C(=O)Nc2ccc(Cl)cn2)cc1 (configuration not stated)	inactive	–	–	–
CCN(CC)CC(=O)N=S(C)(=O)c1ccc(C(=O)Nc2ccc(Cl)cc2C(=O)Nc2ccc(Cl)cn2)cc1 (configuration not stated) [listing 1 of 2 here]	100%	–	–	Activity (Rattus norvegicus [18]): Dose-dependent effect; Activity (Rattus norvegicus [19]): Dose-dependent effect
CNCC(=O)N=S(C)(=O)c1ccc(C(=O)Nc2ccc(Cl)cc2C(=O)Nc2ccc(Cl)cn2)cc1 (configuration not stated)	93%	0.77 µM	1.7 µM	IC50 (Coagulation factor X [3]): 5.4 nM
C[S+](=N)([O-])c1ccc(C(=O)Nc2ccc(Cl)cc2C(=O)Nc2ccc(Cl)cn2)cc1 (configuration not stated)	76%	7.2 µM	–	–
CS(=N)(=O)Cc1ccc(C(=O)Nc2ccc(Cl)cc2C(=O)Nc2ccc(Cl)cn2)cc1 (configuration not stated)	inactive	–	–	–
CCN(CC)CC(=O)N=S(C)(=O)c1ccc(C(=O)Nc2c(OC)cc(Cl)cc2C(=O)Nc2ccc(Cl)cn2)cc1 (configuration not stated)	97%	0.92 µM	1.3 µM	IC50 (Coagulation factor X [3]): 3.4 nM
O=C(NC[C@H]1CN(c2ccc(N3CCOCC3=O)cc2)C(=O)O1)c1ccc(Cl)s1 [RIVAROXABAN]	–	0.39 µM	1.5 µM	Activity (Rattus norvegicus [9]): 50%; Activity (Rattus norvegicus [16]): 63%
CC(C)NCC(=O)N=S(C)(=O)c1ccc(C(=O)Nc2ccc(Cl)cc2C(=O)Nc2ccc(Cl)cn2)cc1 (configuration not stated)	97%	0.95 µM	1.9 µM	IC50 (Coagulation factor X [3]): 4 nM

SMILES	inhibition (Coagulation factor X [1])	2PT (Plasma [2])	2PT (Plasma [4])	further results
CS(=O)(=O)N=S(C)(=O)c1ccc(C(=O)Nc2ccc(Cl)cc2C(=O)Nc2ccc(Cl)cn2)cc1 (configuration not stated)	55%	2.6 µM	–	–
CC(=O)N=[S+](C)([O-])c1ccc(C(=O)Nc2ccc(Cl)cc2C(=O)Nc2ccc(Cl)cn2)cc1 (configuration not stated)	61%	7 µM	–	–
CN(C)CCN=S(C)(=O)c1ccc(C(=O)Nc2ccc(Cl)cc2C(=O)Nc2ccc(Cl)cn2)cc1 (configuration not stated)	82%	1.14 µM	2.01 µM	IC50 (Coagulation factor X [3]): 11.6 nM
CS(=O)(=NC(N)=O)c1ccc(C(=O)Nc2ccc(Cl)cc2C(=O)Nc2ccc(Cl)cn2)cc1 (configuration not stated)	41%	4.1 µM	–	–
CN(C)CC(=O)N=S(C)(=O)c1ccc(C(=O)Nc2ccc(Cl)cc2C(=O)Nc2ccc(Cl)cn2)cc1 (configuration not stated)	85%	1.2 µM	1.4 µM	IC50 (Coagulation factor X [3]): 9 nM
CCN(CC)CC(=O)N=S(C)(=O)c1ccc(C(=O)Nc2ccc(Cl)cc2C(=O)Nc2ccc(Cl)cn2)cc1 (configuration not stated) [listing 2 of 2 here]	–	0.68 µM	0.8 µM	IC50 (Coagulation factor X [3]): 2.1 nM; Ki (Coagulation factor X [5]): 1.1 nM; Ki (Prothrombin): > 20000 nM; Ki (Plasminogen): > 20000 nM; Ki [6]: > 20000 nM; Ki [7]: > 20000 nM; Ki [8]: > 20000 nM; inhibition at 10 µM (CYP3A4): 18%
COc1ccc(NC(=O)c2ccc(S(C)(=N)=O)cc2)c(C(=O)Nc2ccc(Cl)cn2)c1 (configuration not stated)	42%	–	–	–
CS(=O)(=NC(=O)CN1CCCCC1)c1ccc(C(=O)Nc2ccc(Cl)cc2C(=O)Nc2ccc(Cl)cn2)cc1 (configuration not stated)	97%	1.73 µM	–	–
CS(=O)(=NCCN1CCCC1)c1ccc(C(=O)Nc2ccc(Cl)cc2C(=O)Nc2ccc(Cl)cn2)cc1 (configuration not stated)	74%	2.16 µM	–	–
CCN(CC)CCN=S(C)(=O)c1ccc(C(=O)Nc2ccc(Cl)cc2C(=O)Nc2ccc(Cl)cn2)cc1 (configuration not stated)	77%	1.78 µM	–	–
CCNCC(=O)N=S(C)(=O)c1ccc(C(=O)Nc2c(OC)cc(Cl)cc2C(=O)Nc2ccc(Cl)cn2)cc1 (configuration not stated)	100%	0.74 µM	1.15 µM	IC50 (Coagulation factor X [3]): 2.4 nM
COc1cccc(C(=O)Nc2ccc(Cl)cn2)c1NC(=O)c1ccc(S(C)(=N)=O)cc1 (configuration not stated)	inactive	–	–	–
COc1cc(Cl)cc(C(=O)Nc2ccc(Cl)cn2)c1NC(=O)c1ccc(S(C)(=O)=NC(=O)CN2CCCC2)cc1 (configuration not stated)	90%	0.53 µM	1.1 µM	IC50 (Coagulation factor X [3]): 6.4 nM
COc1cc(Cl)cc(C(=O)Nc2ccc(Cl)cn2)c1NC(=O)c1ccc(S(C)(=N)=O)cc1 (configuration not stated)	69%	–	–	–
CS(=O)(=NC(=O)CN1CCC(C(N)=O)CC1)c1ccc(C(=O)Nc2ccc(Cl)cc2C(=O)Nc2ccc(Cl)cn2)cc1 (configuration not stated)	49%	2.54 µM	–	–
CS(=O)(=NC#N)c1ccc(C(=O)Nc2ccc(Cl)cc2C(=O)Nc2ccc(Cl)cn2)cc1 (configuration not stated)	76%	2.3 µM	–	–
CS(=O)(=NC(=O)CN1CCOCC1)c1ccc(C(=O)Nc2ccc(Cl)cc2C(=O)Nc2ccc(Cl)cn2)cc1 (configuration not stated)	45%	–	–	–
CS(=O)(=NC(=O)CNC1CCCC1)c1ccc(C(=O)Nc2ccc(Cl)cc2C(=O)Nc2ccc(Cl)cn2)cc1 (configuration not stated)	100%	2.26 µM	–	–
